The values below come from publication PMC4286194 (Biochemical Journal, 2015).

Some targets named below: HIPK1 (Homo sapiens, UniProt Q86Z02); MAP4K5 (Homo sapiens, UniProt Q9Y4K4); MLK1 (Homo sapiens, UniProt P80192); MNK1 (Homo sapiens, UniProt Q9BUB5).
Common to all, as to experiment: Kinase profiling
Type in all cases: biochemical

The target of the next assay is T1, BRSK2 (Homo sapiens, UniProt Q8IWQ3).
T1 sequence (Q8IWQ3 1-736): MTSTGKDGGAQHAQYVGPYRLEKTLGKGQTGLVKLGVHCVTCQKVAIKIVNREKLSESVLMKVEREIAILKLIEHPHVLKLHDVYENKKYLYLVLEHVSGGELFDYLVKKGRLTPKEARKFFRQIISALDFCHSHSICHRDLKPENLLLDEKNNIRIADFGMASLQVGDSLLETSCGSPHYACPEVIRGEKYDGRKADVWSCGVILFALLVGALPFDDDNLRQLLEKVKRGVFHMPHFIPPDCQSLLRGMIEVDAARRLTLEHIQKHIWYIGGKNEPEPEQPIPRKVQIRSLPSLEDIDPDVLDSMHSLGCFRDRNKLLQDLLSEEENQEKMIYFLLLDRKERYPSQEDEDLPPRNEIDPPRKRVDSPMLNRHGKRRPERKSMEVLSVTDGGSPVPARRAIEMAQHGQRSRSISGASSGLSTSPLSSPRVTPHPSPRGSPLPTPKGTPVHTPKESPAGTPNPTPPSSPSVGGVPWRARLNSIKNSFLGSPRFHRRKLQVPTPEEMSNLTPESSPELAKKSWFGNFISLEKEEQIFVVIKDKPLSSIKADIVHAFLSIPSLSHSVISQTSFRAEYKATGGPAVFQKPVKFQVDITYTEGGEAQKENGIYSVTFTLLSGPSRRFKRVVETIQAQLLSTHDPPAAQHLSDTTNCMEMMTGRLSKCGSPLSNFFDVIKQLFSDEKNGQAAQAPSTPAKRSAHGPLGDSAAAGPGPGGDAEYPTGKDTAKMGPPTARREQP

The target of the next assay is T2, CHK1 (Homo sapiens, UniProt O14757).
T2 sequence (O14757 1-476): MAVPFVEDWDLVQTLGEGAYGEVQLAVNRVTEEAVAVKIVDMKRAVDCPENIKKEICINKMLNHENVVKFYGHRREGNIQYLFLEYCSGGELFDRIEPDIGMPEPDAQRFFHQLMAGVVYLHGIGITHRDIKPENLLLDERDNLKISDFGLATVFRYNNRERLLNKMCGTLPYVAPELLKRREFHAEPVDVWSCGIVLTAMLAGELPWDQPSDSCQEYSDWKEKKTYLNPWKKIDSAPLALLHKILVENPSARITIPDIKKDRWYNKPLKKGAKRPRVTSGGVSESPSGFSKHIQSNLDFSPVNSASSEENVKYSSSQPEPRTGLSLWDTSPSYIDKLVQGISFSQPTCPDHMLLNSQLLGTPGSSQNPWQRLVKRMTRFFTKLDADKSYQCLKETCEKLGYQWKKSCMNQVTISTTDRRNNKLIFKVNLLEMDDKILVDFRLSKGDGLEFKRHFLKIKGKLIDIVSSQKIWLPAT

In a further assay the target is T3, TAK1 (Homo sapiens, UniProt O43318).
T3 sequence (O43318 1-303 limits assumed): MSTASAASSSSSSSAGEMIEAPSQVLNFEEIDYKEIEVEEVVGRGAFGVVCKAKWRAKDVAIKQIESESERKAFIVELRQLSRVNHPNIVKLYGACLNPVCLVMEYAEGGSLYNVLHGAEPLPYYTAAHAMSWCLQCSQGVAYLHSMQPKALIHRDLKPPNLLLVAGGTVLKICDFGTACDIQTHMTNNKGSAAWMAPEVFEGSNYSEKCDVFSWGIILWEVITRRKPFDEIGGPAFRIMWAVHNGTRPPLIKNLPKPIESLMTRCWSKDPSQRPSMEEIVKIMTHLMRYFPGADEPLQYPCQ

For another assay, the target named is T4, ZAP70 (Homo sapiens, UniProt P43403).
T4 sequence (P43403 1-619): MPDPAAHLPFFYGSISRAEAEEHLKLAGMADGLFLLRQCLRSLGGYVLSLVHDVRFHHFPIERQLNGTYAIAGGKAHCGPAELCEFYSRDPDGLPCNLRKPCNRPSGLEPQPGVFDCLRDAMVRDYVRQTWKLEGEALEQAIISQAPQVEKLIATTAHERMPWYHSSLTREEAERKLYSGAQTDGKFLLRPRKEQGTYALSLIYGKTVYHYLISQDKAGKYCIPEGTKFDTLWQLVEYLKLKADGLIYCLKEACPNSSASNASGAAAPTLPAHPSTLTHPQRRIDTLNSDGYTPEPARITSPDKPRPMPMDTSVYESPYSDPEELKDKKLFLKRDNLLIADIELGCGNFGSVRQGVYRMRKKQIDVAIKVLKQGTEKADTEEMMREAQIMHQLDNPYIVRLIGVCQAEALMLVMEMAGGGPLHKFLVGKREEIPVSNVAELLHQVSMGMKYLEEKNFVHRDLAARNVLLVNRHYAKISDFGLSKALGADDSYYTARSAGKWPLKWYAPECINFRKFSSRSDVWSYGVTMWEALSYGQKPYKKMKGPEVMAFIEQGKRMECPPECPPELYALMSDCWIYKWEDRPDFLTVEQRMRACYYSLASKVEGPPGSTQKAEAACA

As usually defined, the remaining activity is the signal under treatment as a percentage of the control signal.

Each structure is given as a SMILES string.

MAP4K5, sequence (Q9Y4K4 whole entry): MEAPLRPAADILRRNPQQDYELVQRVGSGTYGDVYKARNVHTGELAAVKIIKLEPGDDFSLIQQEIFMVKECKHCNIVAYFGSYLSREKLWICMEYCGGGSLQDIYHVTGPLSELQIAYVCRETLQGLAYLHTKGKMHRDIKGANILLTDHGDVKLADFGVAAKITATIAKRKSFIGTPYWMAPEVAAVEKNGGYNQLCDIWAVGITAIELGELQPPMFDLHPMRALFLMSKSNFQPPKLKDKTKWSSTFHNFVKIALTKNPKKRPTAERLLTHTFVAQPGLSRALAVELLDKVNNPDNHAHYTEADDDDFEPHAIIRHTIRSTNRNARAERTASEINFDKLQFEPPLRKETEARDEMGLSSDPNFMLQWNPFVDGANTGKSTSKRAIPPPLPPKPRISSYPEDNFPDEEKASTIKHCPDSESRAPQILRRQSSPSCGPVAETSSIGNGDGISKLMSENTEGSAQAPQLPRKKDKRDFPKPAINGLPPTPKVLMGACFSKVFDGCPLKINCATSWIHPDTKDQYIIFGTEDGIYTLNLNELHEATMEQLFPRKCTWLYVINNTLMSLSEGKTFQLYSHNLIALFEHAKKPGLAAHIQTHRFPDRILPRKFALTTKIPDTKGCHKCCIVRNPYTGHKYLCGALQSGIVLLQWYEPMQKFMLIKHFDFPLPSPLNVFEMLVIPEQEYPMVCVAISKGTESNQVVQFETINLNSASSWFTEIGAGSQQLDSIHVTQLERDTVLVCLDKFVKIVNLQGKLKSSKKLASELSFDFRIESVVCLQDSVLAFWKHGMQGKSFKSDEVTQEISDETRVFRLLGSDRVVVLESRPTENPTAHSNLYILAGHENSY
MLK1, sequence (P80192 whole entry): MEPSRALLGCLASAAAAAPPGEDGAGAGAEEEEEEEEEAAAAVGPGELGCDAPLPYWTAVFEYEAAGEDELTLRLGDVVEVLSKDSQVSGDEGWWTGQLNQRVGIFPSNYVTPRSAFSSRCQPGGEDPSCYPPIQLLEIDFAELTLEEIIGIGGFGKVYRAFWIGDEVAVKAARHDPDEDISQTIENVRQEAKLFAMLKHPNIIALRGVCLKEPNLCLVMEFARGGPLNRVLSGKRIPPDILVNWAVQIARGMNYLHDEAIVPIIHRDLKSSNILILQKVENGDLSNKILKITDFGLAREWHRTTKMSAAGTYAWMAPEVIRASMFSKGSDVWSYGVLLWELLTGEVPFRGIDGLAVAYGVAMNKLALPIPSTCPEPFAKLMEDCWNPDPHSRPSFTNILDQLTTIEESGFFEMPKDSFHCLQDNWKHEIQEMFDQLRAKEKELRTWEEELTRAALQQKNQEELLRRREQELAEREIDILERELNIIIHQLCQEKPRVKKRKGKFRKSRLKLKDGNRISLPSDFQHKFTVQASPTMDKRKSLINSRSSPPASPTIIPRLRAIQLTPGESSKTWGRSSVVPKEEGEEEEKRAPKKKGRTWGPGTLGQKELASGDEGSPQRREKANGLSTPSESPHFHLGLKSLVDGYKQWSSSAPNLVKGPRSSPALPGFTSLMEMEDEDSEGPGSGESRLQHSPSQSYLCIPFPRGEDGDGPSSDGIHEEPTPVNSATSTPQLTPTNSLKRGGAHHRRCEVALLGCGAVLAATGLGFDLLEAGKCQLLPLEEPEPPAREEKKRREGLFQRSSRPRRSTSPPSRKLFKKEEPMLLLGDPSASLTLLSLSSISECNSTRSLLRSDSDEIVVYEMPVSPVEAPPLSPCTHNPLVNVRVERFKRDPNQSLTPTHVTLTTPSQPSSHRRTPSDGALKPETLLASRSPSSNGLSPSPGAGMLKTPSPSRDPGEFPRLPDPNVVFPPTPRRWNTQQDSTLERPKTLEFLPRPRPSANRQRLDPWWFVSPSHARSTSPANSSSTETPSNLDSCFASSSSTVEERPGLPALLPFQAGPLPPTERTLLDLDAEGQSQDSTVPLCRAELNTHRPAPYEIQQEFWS
MNK1, sequence (Q9BUB5 whole entry): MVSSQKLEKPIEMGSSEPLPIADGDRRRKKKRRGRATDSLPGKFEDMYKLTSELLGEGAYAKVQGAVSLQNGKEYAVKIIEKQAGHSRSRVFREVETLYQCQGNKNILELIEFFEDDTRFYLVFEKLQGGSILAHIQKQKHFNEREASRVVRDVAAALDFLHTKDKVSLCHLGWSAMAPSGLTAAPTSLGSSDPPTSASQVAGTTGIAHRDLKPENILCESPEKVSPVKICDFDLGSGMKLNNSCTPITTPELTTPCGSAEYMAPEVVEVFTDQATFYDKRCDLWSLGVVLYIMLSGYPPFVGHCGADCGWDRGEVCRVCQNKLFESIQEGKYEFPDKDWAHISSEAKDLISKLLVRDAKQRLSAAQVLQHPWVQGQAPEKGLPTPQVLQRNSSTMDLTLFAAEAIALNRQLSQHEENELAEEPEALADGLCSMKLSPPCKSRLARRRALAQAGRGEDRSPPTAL
HIPK1, sequence (Q86Z02 whole entry): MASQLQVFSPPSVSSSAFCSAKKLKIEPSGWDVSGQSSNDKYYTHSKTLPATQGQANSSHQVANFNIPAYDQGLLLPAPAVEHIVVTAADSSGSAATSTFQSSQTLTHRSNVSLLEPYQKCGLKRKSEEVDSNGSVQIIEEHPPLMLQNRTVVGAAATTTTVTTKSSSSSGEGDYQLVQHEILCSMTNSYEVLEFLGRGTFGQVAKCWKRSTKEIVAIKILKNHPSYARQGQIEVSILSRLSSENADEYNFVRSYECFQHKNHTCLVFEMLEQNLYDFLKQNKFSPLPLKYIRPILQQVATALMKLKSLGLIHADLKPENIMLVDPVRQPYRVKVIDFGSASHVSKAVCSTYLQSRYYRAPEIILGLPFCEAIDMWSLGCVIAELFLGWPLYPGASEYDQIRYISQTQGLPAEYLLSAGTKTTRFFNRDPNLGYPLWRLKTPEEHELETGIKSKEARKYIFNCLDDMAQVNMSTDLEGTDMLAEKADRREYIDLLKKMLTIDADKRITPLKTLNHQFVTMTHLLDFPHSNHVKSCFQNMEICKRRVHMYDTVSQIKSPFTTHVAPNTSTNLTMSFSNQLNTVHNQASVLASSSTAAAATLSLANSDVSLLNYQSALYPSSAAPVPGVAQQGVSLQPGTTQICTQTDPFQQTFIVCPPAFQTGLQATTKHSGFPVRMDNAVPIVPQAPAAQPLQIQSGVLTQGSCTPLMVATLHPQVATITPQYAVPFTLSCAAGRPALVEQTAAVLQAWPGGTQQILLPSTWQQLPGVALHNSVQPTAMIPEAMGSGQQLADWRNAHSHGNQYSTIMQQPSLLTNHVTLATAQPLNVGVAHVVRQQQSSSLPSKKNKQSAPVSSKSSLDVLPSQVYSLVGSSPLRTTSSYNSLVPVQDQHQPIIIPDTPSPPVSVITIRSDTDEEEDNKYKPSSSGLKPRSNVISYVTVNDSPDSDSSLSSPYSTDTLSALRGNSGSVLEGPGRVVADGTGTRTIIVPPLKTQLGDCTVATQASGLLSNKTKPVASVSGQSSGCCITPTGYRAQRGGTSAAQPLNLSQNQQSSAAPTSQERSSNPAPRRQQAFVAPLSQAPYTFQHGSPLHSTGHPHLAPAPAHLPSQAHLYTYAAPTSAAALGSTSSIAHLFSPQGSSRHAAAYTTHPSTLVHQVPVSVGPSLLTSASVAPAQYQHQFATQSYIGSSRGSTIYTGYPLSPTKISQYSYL

For the molecule `COc1cc(Nc2c(C#N)cnc3cc(OCCCN4CCN(C)CC4)c(OC)cc23)c(Cl)cc1Cl` [Bosutinib, bosutinib], the remaining activity at 0.1 µM at BRSK2 amounted to 107 ± 12%; at CHK1, 91 ± 2%; on HIPK1 it was 95%; at MAP4K5 it was 0%; at MLK1, 52 ± 9%; at MNK1 it was 99 ± 14%. For the same molecule, the remaining activity at 0.1 µM on TAK1 was 41 ± 9%; at ZAP70, 99 ± 4%. In addition, the remaining activity at 1 µM at BRSK2 is 120 ± 4%; at CHK1, 57%; at HIPK1, 57%; at MAP4K5 (1 µM), 1%; on MLK1, 18 ± 4%; on MNK1 it was 105 ± 2%. Further, the remaining activity at 1 µM was found to be 5% at TAK1 and 109 ± 18% at ZAP70.
`Cc1nc(Nc2ncc(C(=O)Nc3c(C)cccc3Cl)s2)cc(N2CCN(CCO)CC2)n1` [Dasatinib]: the remaining activity at 0.1 µM at BRSK2 is 102 ± 14%; on CHK1 it was 100 ± 6%; on HIPK1, 105 ± 4%; on MAP4K5 it was 22 ± 1%; on MLK1, 72 ± 1%; on MNK1, 108%. In addition, the figures for the remaining activity at 0.1 µM at TAK1 and at ZAP70 were 97 ± 23% and 109 ± 1%, respectively. In addition, the remaining activity at 1 µM on BRSK2 came out at 108 ± 13%; at CHK1 it was 96 ± 6%; at HIPK1, 122 ± 6%; at MLK1, 41 ± 2%; at MNK1, 102 ± 9%; at TAK1, 99 ± 7%. Moreover, the remaining activity at 1 µM on ZAP70 stood at 121 ± 27%.
